# Experimental data reported in US20190225650A1, “PEPTIDOMIMETIC MACROCYCLES AND USE THEREOF IN REGULATING HIF1ALPHA” (AILERON THERAPEUTICS, INC., priority 2013, published 2019).
# Bridge positions count the residues as written; N and C are the ends. Square brackets hold non-standard residues; d marks the D form. Peptide text beside a SMILES is read from it. R8 = C=CCCCCCC[C@@](C)(N)C(=O)O; S5 = C=CCCC[C@](C)(N)C(=O)O; Nle = CCCC[C@H](N)C(=O)O
# Columns and labels:
# [1] = target: T1, flag-tagged HIF1α (AA 786-826) / His6-tagged p300 (AA 323-423) complex (Homo sapiens, UniProt Q09472); test: HIF1α p300 displacement assay (TR FRET, +CHAPS); assay type: binding; conditions: read-out: IC50 (nM) (HIF1α_p300 Displacement + CHAPS)
# T1 construct: His6-tagged p300 (AA 323-423); made in house; host or cells: E. coli (pETDuet vector)
# Summary of the method: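 In this TR-FRET displacement format, peptides compete HIF1α C-terminal transactivation domain off p300-CH. They were preincubated 1 h at room temperature with 300 nM complex in HEPES pH 7.4/NaCl buffer with 7.5 mM CHAPS and 1 mM DTT. Anti-His-D2 (4 nM) and anti-Flag-K (0.5 μM) followed for 2 h, and a one-site fit of the fluorescence ratio gave IC50.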
# HRE-bla ME-180 cells [2] = test: Cell proliferation assay (viability, MTT, 1% FBS); assay type: cell-based, human
# Summary of the method: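 Viable cell number was measured with the CellTiter 96 (MTT) kit after compounds were applied for a 16 h normoxic (21% O2) pretreatment, followed by further normoxic or hypoxic (1% O2) culture. Cells: 2×10^4 ME-180 per well, Opti-MEM + 1% FBS, 0.5% DMSO vehicle.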
# HRE-bla ME-180 cells [3] = test: Reporter gene assay (HRE-bla ME-180 HIF reporter, GeneBLAzer); assay type: cell-based, human; conditions: for EC50: 24 hour normoxia
# Summary of the method: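 A FRET β-lactamase readout of HIF transcription was used. After compound treatment in 0.3% DMSO/media under normoxic conditions, 20 μl of 6× LiveBLAzer-FRET B/G (CCF4-AM) substrate was added. Plates sat 3 hr at room temperature in the dark and were read at 409 Ex/460Em and 409Ex/530Em on a Synergy 2. Inhibition was compared against DMSO vehicle controls, with chetomin as positive control.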
Compound,IC50 [1] [nM],EC50 (HRE-bla ME-180 cells [3]) [µM],Viability 1% FBS AVG (MTT V3-24 hr Normoxia) (μM) (HRE-bla ME-180 cells [2]),18 h Avg % max inhibition at top conc (HIF Rptr-24 hrs normoxia) (μM) (HRE-bla ME-180 cells [3])
CCCC[C@H](NC(=O)[C@H](CCC(=O)O)NC(=O)[C@@H](NC(=O)[C@@H](NC(=O)[C@H](CC(C)C)NC(=O)[C@]1(C)CCCC=CCCC[C@](C)(NC(=O)[C@H](CCC(=O)O)NC(=O)[C@H](CC(=O)O)NC(=O)[C@@H](NC(=O)[C@H](Cc2ccccc2)NC(C)=O)[C@@H](C)O)C(=O)N[C@@H](C(C)C)C(=O)N[C@@H](CC(C)C)C(=O)N[C@@H](CCCC)C(=O)N1)C(C)C)[C@@H](C)CC)C(=O)N[C@@H](C)C(=O)N[C@@H](CC(C)C)C(N)=O [SP-153] (Ac-FTDE[S5]VL[Nle][S5]LVIE[Nle]AL-NH2; staple 5-9),400 to 700,> 30,++++ (≥30: ++++),+ (<10: +)
CCCC[C@H](NC(=O)[C@H](CCC(=O)O)NC(=O)[C@@H](NC(=O)[C@@H](NC(=O)[C@H](CC(C)C)NC(=O)[C@]1(C)CCCC=CCCC[C@](C)(NC(=O)[C@H](C)NC(=O)[C@H](CC(=O)O)NC(=O)[C@@H](NC(=O)[C@H](Cc2ccccc2)NC(C)=O)[C@@H](C)CC)C(=O)N[C@@H](C(C)C)C(=O)N[C@@H](CC(C)C)C(=O)N[C@@H](CCCC)C(=O)N1)C(C)C)[C@@H](C)CC)C(=O)N[C@@H](C)C(=O)N[C@@H](CC(C)C)C(N)=O [SP-148] (Ac-FIDA[S5]VL[Nle][S5]LVIE[Nle]AL-NH2; staple 5-9),> 700,> 30,++++ (≥30: ++++),+++ (≤25 but <50: +++)
CCCC[C@@H]1NC(=O)[C@H](CC(C)C)NC(=O)[C@H](C(C)C)NC(=O)[C@@](C)(NC(=O)[C@H](CCC(=O)O)NC(=O)[C@H](CC(=O)O)NC(=O)[C@@H](NC(=O)[C@H](Cc2ccccc2)NC(C)=O)[C@@H](C)CC)CCCC=CCCCC2(CCCC=CCCC[C@](C)(C(=O)N[C@@H](CCC(N)=O)C(=O)N[C@@H](C)C(=O)N[C@@H](CC(C)C)C(N)=O)NC(=O)[C@H]([C@@H](C)CC)NC(=O)[C@H](C(C)C)NC(=O)[C@H](CC(C)C)NC2=O)NC1=O (stereo partly drawn) [SP-212],200 to 400,5 to 15,++ (≤5 but <15: ++),++++ (≥50: ++++)
CC[C@H](C)[C@H](NC(=O)[C@H](CCCNC(=N)N)NC(=O)[C@H](CC(=O)O)NC(=O)[C@H](CC(C)C)NC(=O)[C@H](C)NC(=O)[C@H](CCSC)NC(=O)[C@]1(C)CCCC=CCCC[C@](C)(NC(=O)[C@H](CCSC)NC(=O)[C@H](Cc2ccccc2)NC(=O)[C@@H](NC(=O)[C@H](CCC(=O)O)NC(=O)[C@H](CCC(=O)O)NC(=O)[C@H](CC(=O)O)NC(=O)[C@@H](NC(=O)[C@H](Cc2ccccc2)NC(C)=O)[C@@H](C)CC)C(C)C)C(=O)N[C@@H](CC(C)C)C(=O)N[C@@H](C(C)C)C(=O)N[C@@H]([C@@H](C)CC)C(=O)N1)C(N)=O [SP-264] (Ac-FIDEEVFM[S5]LVI[S5]MALDRI-NH2; staple 9-13),400 to 700,15 to 30,++++ (≥30: ++++),++ (≤10 but <25: ++)

# Second part, led by results:
IC50 [1] [nM],EC50 (HRE-bla ME-180 cells [3]) [µM],Compound,Viability 1% FBS AVG (MTT V3-24 hr Normoxia) (μM) (HRE-bla ME-180 cells [2]),18 h Avg % max inhibition at top conc (HIF Rptr-24 hrs normoxia) (μM) (HRE-bla ME-180 cells [3])
> 700,> 30,"CCCC[C@H](NC(=O)[C@H](C)NC(=O)[C@]1(C)CCCC=CCCCCCC[C@@](C)(NC(=O)[C@H](CCC(=O)O)NC(=O)[C@H](CC(=O)O)NC(=O)[C@@H](NC(=O)[C@H](CC(N)=O)NC(=O)[C@@H](NC(=O)[C@H](CCC(N)=O)NC(=O)[C@]2(C)CCCC=CCCC[C@](C)(NC(=O)[C@H](CC(C)C)NC(=O)[C@H](CCC(=O)O)NC(=O)[C@H](CCC(=O)O)NC(=O)CNC(=O)[C@H](CCC(N)=O)NC(=O)[C@H](CC(C)C)NC(=O)[C@H](CC(C)C)NC(C)=O)C(=O)N[C@@H](CCCNC(=N)N)C(=O)N[C@@H](C)C(=O)N[C@@H](CC(C)C)C(=O)N2)C(C)C)[C@@H](C)CC)C(=O)N[C@@H](C(C)C)C(=O)N[C@@H](CC(C)C)C(=O)N[C@@H](CCCC)C(=O)N[C@@H](CO)C(=O)N[C@@H](CC(C)C)C(=O)N[C@@H](C(C)C)C(=O)N1)C(N)=O [SP-363] (Ac-LLQGEEL[S5]RAL[S5]QVNIDE[R8]VL[Nle]SLV[S5]A[Nle]-NH2; staple 8-12, 19-26)",++++ (≥30: ++++),++ (≤10 but <25: ++)
≤ 200,> 30,"CCCC[C@H](NC(=O)[C@H](CCC(=O)O)NC(=O)[C@]1(C)CCCC=CCCCCCC[C@@](C)(NC(=O)[C@H](CCC(=O)O)NC(=O)[C@H](CC(=O)O)NC(=O)[C@@H](NC(=O)[C@H](CC(N)=O)NC(=O)[C@@H](NC(=O)[C@]2(C)CCCC=CCCCCCC[C@@](C)(NC(=O)[C@H](CCC(=O)O)NC(=O)[C@H](C)NC(=O)[C@H](CCC(N)=O)NC(=O)[C@H](CC(C)C)NC(=O)[C@H](CC(C)C)NC(C)=O)C(=O)N[C@@H](CC(C)C)C(=O)N[C@@H](CC(C)C)C(=O)N[C@@H](CCCNC(=N)N)C(=O)N[C@@H](C)C(=O)N[C@@H](CC(C)C)C(=O)N[C@@H](CC(=O)O)C(=O)N2)C(C)C)[C@@H](C)CC)C(=O)N[C@@H](C(C)C)C(=O)N[C@@H](CC(C)C)C(=O)N[C@@H](CCCC)C(=O)N[C@@H](CO)C(=O)N[C@@H](CC(C)C)C(=O)N[C@@H](C(C)C)C(=O)N1)C(N)=O [SP-357] (Ac-LLQAE[R8]LLRALD[S5]VNIDE[R8]VL[Nle]SLV[S5]E[Nle]-NH2; staple 6-13, 19-26)",++++ (≥30: ++++),++ (≤10 but <25: ++)
400 to 700,> 30,"CCCC[C@H](NC(=O)[C@H](CCC(=O)O)NC(=O)[C@]1(C)CCCC=CCCCCCC[C@@](C)(NC(=O)[C@H](CCC(=O)O)NC(=O)[C@H](CC(=O)O)NC(=O)[C@@H](NC(=O)[C@H](CC(N)=O)NC(=O)[C@@H](NC(=O)[C@H](CCC(N)=O)NC(=O)[C@H](CC(=O)O)NC(=O)[C@H](CC(C)C)NC(=O)[C@H](C)NC(=O)[C@H](CCCNC(=N)N)NC(=O)[C@]2(C)CCCC=CCCC[C@](C)(NC(=O)[C@H](CCC(N)=O)NC(=O)[C@H](CC(C)C)NC(=O)[C@H](CC(C)C)NC(C)=O)C(=O)N[C@@H](CCC(=O)O)C(=O)N[C@@H](CCC(=O)O)C(=O)N[C@@H](CC(C)C)C(=O)N2)C(C)C)[C@@H](C)CC)C(=O)N[C@@H](C(C)C)C(=O)N[C@@H](CC(C)C)C(=O)N[C@@H](CCCC)C(=O)N[C@@H](CO)C(=O)N[C@@H](CC(C)C)C(=O)N[C@@H](C(C)C)C(=O)N1)C(=O)NCC(N)=O [SP-310] (Ac-LLQ[S5]EEL[S5]RALDQVNIDE[R8]VL[Nle]SLV[S5]E[Nle]G-NH2; staple 4-8, 19-26)",++++ (≥30: ++++),+ (<10: +)
> 700,≤ 5,"CCCC[C@H](NC(=O)[C@H](CCC(=O)O)NC(=O)[C@]1(C)CCCC=CCCCCCC[C@@](C)(NC(=O)[C@H](CCC(=O)O)NC(=O)[C@H](CC(=O)O)NC(=O)[C@@H](NC(=O)[C@H](CC(N)=O)NC(=O)[C@@H](NC(=O)[C@H](CCC(N)=O)NC(=O)[C@]2(C)CCCC=CCCC[C@](C)(NC(=O)[C@H](CC(C)C)NC(=O)[C@H](CCC(=O)O)NC(=O)[C@H](CCC(=O)O)NC(C)=O)C(=O)N[C@@H](CCCNC(=N)N)C(=O)N[C@@H](C)C(=O)N[C@@H](CC(C)C)C(=O)N2)C(C)C)[C@@H](C)CC)C(=O)N[C@@H](C(C)C)C(=O)N[C@@H](CC(C)C)C(=O)N[C@@H](CCCC)C(=O)N[C@@H](CO)C(=O)N[C@@H](CC(C)C)C(=O)N[C@@H](C(C)C)C(=O)N1)C(N)=O [SP-366] (Ac-EEL[S5]RAL[S5]QVNIDE[R8]VL[Nle]SLV[S5]E[Nle]-NH2; staple 4-8, 15-22)",++++ (≥30: ++++),++++ (≥50: ++++)
≤ 200,> 30,"CCCC[C@H](NC(=O)[C@H](CCC(=O)O)NC(=O)[C@@H](NC(=O)[C@@H](NC(=O)[C@H](CC(C)C)NC(=O)[C@]1(C)CCCC=CCCC[C@](C)(NC(=O)[C@H](CCC(=O)O)NC(=O)[C@H](CC(=O)O)NC(=O)[C@@H](NC(=O)[C@H](CC(N)=O)NC(=O)[C@@H](NC(=O)[C@]2(C)CCCC=CCCCCCC[C@@](C)(NC(=O)[C@H](CCC(=O)O)NC(=O)CNC(=O)[C@H](CCC(N)=O)NC(=O)[C@H](CC(C)C)NC(=O)[C@H](CC(C)C)NC(C)=O)C(=O)N[C@@H](CC(C)C)C(=O)N[C@@H](CC(C)C)C(=O)N[C@@H](CCCNC(=N)N)C(=O)N[C@@H](C)C(=O)N[C@@H](CC(C)C)C(=O)N[C@@H](CC(=O)O)C(=O)N2)C(C)C)[C@@H](C)CC)C(=O)N[C@@H](C(C)C)C(=O)N[C@@H](CC(C)C)C(=O)N[C@@H](CCCC)C(=O)N1)C(C)C)[C@@H](C)CC)C(=O)NCC(N)=O [SP-328] (Ac-LLQGE[R8]LLRALD[S5]VNIDE[S5]VL[Nle][S5]LVIE[Nle]G-NH2; staple 6-13, 19-23)",++++ (≥30: ++++),+ (<10: +)
